Measured values published in patent publication US10376520B2, “Methods for the treatment of cardiovascular disorders” (Galapagos NV, priority 2015, dated 2019).

Legend:
RA patients [1] = test: Total cholesterol determination, Study 4 (4 weeks study in RA patients with inadequate response to methotrexate); assay type: in vivo, human; conditions: for [Total cholesterol] levels: Study 4
Description: Randomized, double-blind, placebo-controlled, multicenter, phase II study of Compound 1 (dosed as a [Compound 1:HCl:3H2O]) to compare four dose regimens versus placebo, in combination with methotrexate, administered for 4 weeks in the treatment of subjects with active rheumatoid arthritis who have an inadequate response to methotrexate alone.
Randomized double-blind, placebo-controlled add on study in subjects with active RA who have an inadequate response to MTX monotherapy, in combination with methotrexate, administered for 4 weeks in the treatment of subjects with active rheumatoid arthritis who have an inadequate response to methotrexate alone.
90 subjects randomized to one of 4 dose regimens of Compound 1 (dosed as a [Compound 1:HCl:3H2O]) or placebo, on top of their stable dose of MTX. Thus, each of the 4 different doses of Compound 1 (dosed as a [Compound 1:HCl:3H2O]) and placebo groups has 18 subjects.
Compound 1 (dosed as a [Compound 1:HCl:3H2O]) capsules administered orally in 30 mg, 75 mg, 150 mg, or 300 mg doses per day for 4 weeks.
This method is based on the determination of Δ^4 cholestenone after enzymatic cleavage of the cholesterol ester by cholesterol esterase, conversion of cholesterol by cholesterol oxidase, and subsequent measurement by the Trinder reaction of the hydrogen peroxide formed (Allain et al., 1974).
Cholesterol esters are cleaved by the action of cholesterol esterase to yield free cholesterol and fatty acids. Cholesterol oxidase then catalyzes the oxidation of cholesterol to cholest-4-en-3-one and hydrogen peroxide. In the presence of peroxidase, the hydrogen peroxide formed effects the oxidative coupling of phenol and 4-aminophenazone to form a red quinone-imine dye. The color intensity of the dye formed is directly proportional to the cholesterol concentration. It is determined by measuring the increase in absorbance.
Human serum and plasma samples cholesterol determination was done on a Roche/Hitachi Cobas c 701/702 system which automatically calculate the analyte concentration of each sample.

RA patients [2] = test: CRP analysis (immunoturbidimetric assay), Study 1; assay type: in vivo, human
Experimental: Double-blind, placebo-controlled add on study in subjects with moderately to severely active RA who have an inadequate response to methotrexate (MTX) (oral or parenteral).
Compound 1 (dosed as a [Compound 1:HCl:3H2O]) is dosed for twelve weeks once daily (q.d.) (50 mg, 100 mg or 200 mg) or twice daily (b.i.d.) (25 mg, 50 mg or 100 mg); or placebo.
At Week 12, the subjects on placebo who have not achieved 20% improvement in swollen joint count (SJC66) and tender joint count (TJC68) are re-randomized automatically to receive Compound 1 (dosed as a [Compound 1:HCl:3H2O]) either at 100 mg q.d. or 50 mg b.i.d. doses in a blinded fashion; subjects on 50 mg q.d. who have not achieved 20% improvement in SJC66 and TJC68 will be assigned to 100 mg q.d. and subjects on 25 mg b.i.d. that have not achieved a 20% improvement in SJC66 and TJC68 will be assigned to 50 mg b.i.d. Subjects who switch treatment at week 12 are handled as if they discontinued at week 12 for the purpose of statistical analysis, whereas subjects in the other groups will maintain their randomized treatment until Week 24.
The determination of CRP is made using Immunoturbidimetric assay for the in vitro quantitative determination of CRP in human serum and plasma on Roche/Hitachi cobas c systems, wherein human CRP agglutinates with latex particles coated with monoclonal anti-CRP antibodies. The aggregates are determined turbidimetrically (Eda et al., 1998; Price et al., 1987).
Human serum and plasma samples [CRP] determination was done on a Roche/Hitachi Cobas c 301 c 501/502 system which automatically calculate the analyte concentration of each sample. Samples containing precipitates are centrifuged before performing the assay.
The Hommel-corrected p-value for the pairwise comparisons of each group with placebo is shown.
The number of subjects (N) provided in each groups corresponds to the number of patients starting the study in each group, and the ACR data reported below corresponds to the responding patients continuing for the entire 24 weeks on their initial treatment course.

## O=C(Nc1nc2cccc(-c3ccc(CN4CCS(=O)(=O)CC4)cc3)n2n1)C1CC1 [Compound 1, cyclopropanecarboxylic acid {5-[4-(1,1-dioxo-thiomorpholin-4-ylmethyl)-phenyl]-[1,2,4]triazolo[1,5-a]pyridin-2yl}-amide]
RA patients [1]; 30 mg qd
  [Total cholesterol] % Mean % variation vs baseline after 4 weeks: 6%
RA patients [1]; 75 mg qd
  [Total cholesterol] % Mean % variation vs baseline after 4 weeks: 5%
RA patients [1]; 150 mg qd
  [Total cholesterol] % Mean % variation vs baseline after 4 weeks: 3%
RA patients [1]; 300 mg qd
  [Total cholesterol] % Mean % variation vs baseline after 4 weeks: 17%
RA patients [1]; 30 mg q.d., baseline
  [Total cholesterol] levels: 5.19 mmol/L
RA patients [1]; 30 mg q.d., week 1
  [Total cholesterol] levels: 5.31 mmol/L
RA patients [1]; 30 mg q.d., week 2
  [Total cholesterol] levels: 5.25 mmol/L
RA patients [1]; 30 mg q.d., week 3
  [Total cholesterol] levels: 5.32 mmol/L
RA patients [1]; 30 mg q.d., week 4
  [Total cholesterol] levels: 5.50 mmol/L
RA patients [1]; 75 mg q.d., baseline
  [Total cholesterol] levels: 4.99 mmol/L
RA patients [1]; 75 mg q.d., week 1
  [Total cholesterol] levels: 5.04 mmol/L
RA patients [1]; 75 mg q.d., week 2
  [Total cholesterol] levels: 5.07 mmol/L
RA patients [1]; 75 mg q.d., week 3
  [Total cholesterol] levels: 5.08 mmol/L
RA patients [1]; 75 mg q.d., week 4
  [Total cholesterol] levels: 5.18 mmol/L
RA patients [1]; 150 mg q.d., baseline
  [Total cholesterol] levels: 4.77 mmol/L
RA patients [1]; 150 mg q.d., week 1
  [Total cholesterol] levels: 4.94 mmol/L
RA patients [1]; 150 mg q.d., week 2
  [Total cholesterol] levels: 4.85 mmol/L
RA patients [1]; 150 mg q.d., week 3
  [Total cholesterol] levels: 4.89 mmol/L
RA patients [1]; 150 mg q.d., week 4
  [Total cholesterol] levels: 4.96 mmol/L
RA patients [1]; 300 mg q.d., baseline
  [Total cholesterol] levels: 4.56 mmol/L
RA patients [1]; 300 mg q.d., week 1
  [Total cholesterol] levels: 5.13 mmol/L
RA patients [1]; 300 mg q.d., week 2
  [Total cholesterol] levels: 5.21 mmol/L
RA patients [1]; 300 mg q.d., week 3
  [Total cholesterol] levels: 5.23 mmol/L
RA patients [1]; 300 mg q.d., week 4
  [Total cholesterol] levels: 5.33 mmol/L
RA patients [2]; 50 mg q.d., week 1
  CRP mean CFB (LOCF) - 24 weeks results: -7.95 mg/L
RA patients [2]; 50 mg q.d., week 2
  CRP mean CFB (LOCF) - 24 weeks results: -8.23 mg/L
RA patients [2]; 50 mg q.d., week 4
  CRP mean CFB (LOCF) - 24 weeks results: -10.18 mg/L
RA patients [2]; 50 mg q.d., week 8
  CRP mean CFB (LOCF) - CRP variation: -12.02 mg/L
RA patients [2]; 50 mg q.d., week 12
  CRP mean CFB (LOCF) - 24 weeks results: -13.15 mg/L
RA patients [2]; 100 mg q.d., week 1
  CRP mean CFB (LOCF) - 24 weeks results: -11.02 mg/L
RA patients [2]; 100 mg q.d., week 2
  CRP mean CFB (LOCF) - 24 weeks results: -12.94 mg/L
RA patients [2]; 100 mg q.d., week 4
  CRP mean CFB (LOCF) - 24 weeks results: -13.18 mg/L
RA patients [2]; 100 mg q.d., week 8
  CRP mean CFB (LOCF) - 24 weeks results: -12.48 mg/L
RA patients [2]; 100 mg q.d., week 12
  CRP mean CFB (LOCF) - 24 weeks results: -13.57 mg/L
RA patients [2]; 200 mg q.d., week 1
  CRP mean CFB (LOCF) - 24 weeks results: -17.06 mg/L
RA patients [2]; 200 mg q.d., week 2
  CRP mean CFB (LOCF) - 24 weeks results: -17.51 mg/L
RA patients [2]; 200 mg q.d., week 4
  CRP mean CFB (LOCF) - 24 weeks results: -17.94 mg/L
RA patients [2]; 200 mg q.d., week 8
  CRP mean CFB (LOCF) - 24 weeks results: -17.22 mg/L
RA patients [2]; 200 mg q.d., week 12
  CRP mean CFB (LOCF) - 24 weeks results: -17.24 mg/L
RA patients [2]; 2 × 25 mg b.i.d., Week 1
  CRP mean CFB (LOCF) - 24 weeks results: -8.47 mg/L
RA patients [2]; 2 × 25 mg b.i.d., Week 2
  CRP mean CFB (LOCF) - 24 weeks results: -10.06 mg/L
RA patients [2]; 2 × 25 mg b.i.d., Week 4
  CRP mean CFB (LOCF) - 24 weeks results: -7.72 mg/L
RA patients [2]; 2 × 25 mg b.i.d., Week 8
  CRP mean CFB (LOCF) - 24 weeks results: -10.94 mg/L
RA patients [2]; 2 × 25 mg b.i.d., Week 12
  CRP mean CFB (LOCF) - 24 weeks results: -10.26 mg/L
RA patients [2]; 2 × 25 mg b.i.d., Week 20
  CRP mean CFB (LOCF) - 24 weeks results: -12.20 mg/L
RA patients [2]; 2 × 50 mg b.i.d., Week 1
  CRP mean CFB (LOCF) - 24 weeks results: -10.08 mg/L
RA patients [2]; 2 × 50 mg b.i.d., Week 2
  CRP mean CFB (LOCF) - 24 weeks results: -11.03 mg/L
RA patients [2]; 2 × 50 mg b.i.d., Week 4
  CRP mean CFB (LOCF) - 24 weeks results: -13.28 mg/L
RA patients [2]; 2 × 50 mg b.i.d., Week 8
  CRP mean CFB (LOCF) - 24 weeks results: -13.25 mg/L
RA patients [2]; 2 × 50 mg b.i.d., Week 12
  CRP mean CFB (LOCF) - 24 weeks results: -12.97 mg/L
RA patients [2]; 2 × 100 mg b.i.d., Week 1
  CRP mean CFB (LOCF) - 24 weeks results: -17.39 mg/L
RA patients [2]; 2 × 100 mg b.i.d., Week 2
  CRP mean CFB (LOCF) - 24 weeks results: -19.69 mg/L
RA patients [2]; 2 × 100 mg b.i.d., Week 4
  CRP mean CFB (LOCF) - 24 weeks results: -20.64 mg/L
RA patients [2]; 2 × 100 mg b.i.d., Week 8
  CRP mean CFB (LOCF) - 24 weeks results: -21.32 mg/L
RA patients [2]; 2 × 100 mg b.i.d., Week 12
  CRP mean CFB (LOCF) - 24 weeks results: -20.54 mg/L
RA patients [2]; 2 × 100 mg b.i.d., Week 20
  CRP mean CFB (LOCF) - 24 weeks results: -20.80 mg/L
